Measurements: paper PMC9775191, “A Subset Screen of the Compounds Australia Scaffold Library Identifies 7-Acylaminodibenzoxazepinones as Potent and Selective Hits for Anti-Giardia Drug Discovery” (Biomedicines, 2022)

System: G. duodenalis BRIS/91/HEPU/1279
Assay: Primary Giardia screen at 10 µM (live-cell imaging, automated counting)
Assay type: cell-based, Giardia duodenalis
Details: for % Inhibition n=1 48h / % Inhibition n=1 24h: first singlicate assay; for % Inhibition n=2 24h / % Inhibition n=2 48h: re-assessment
Procedure: Each compound was assessed in singlicate, at a final concentration of 10 μM (0.4 μL of a 5 mM stock; diluted to a final volume of 200 μL in culture medium; 0.2% DMSO). […] Plates were incubated in sealed chambers filled with 3% O2, 5% CO2 in N2 and growth was assessed at 24 and 48 h using live cell imaging and automated counting as previously described. Growth inhibition was calculated by subtracting media only background counts and determining percentage growth relative to vehicle (0.2% DMSO) controls. The reliability of these assays was assessed by calculating Z’ factors for each plate as previously described.

Row | SMILES | % Inhibition n=1 48h [%] | also measured
1 | CC1CCN(C(=O)c2n[nH]c(=O)c3ccccc23)CC1 [SN00774511] | 0.0 | –
2 | CC(C)Cn1nc(C(=O)N2CCCCC2c2nc3ccccc3s2)c2ccccc2c1=O (stereo not drawn) [SN00774515] | 2.8 | –
3 | Cc1ccc(-c2nc(-c3cccnc3)sc2CC(=O)Nc2ccc3nc(C)sc3c2)cc1 [SN00774529] | 0.0 | –
4 | CC(C)(C)OC(=O)N1CCCC(N(Cc2ccccc2)C(=O)Cc2csc(-c3cccnc3)n2)C1 (stereo not drawn) [SN00774555] | 0.0 | –
5 | O=C(c1ccc2[nH]cnc2c1)N1CCN(Cc2cccc(Cl)c2)CC1 [SN00774568] | 0.0 | –
6 | C/C(=C/C(=O)N1CCN(C(=O)c2ccc3[nH]cnc3c2)CC1)C1CC1 [SN00774586] | 5.9 | –
7 | COc1ccc(C2CCCN2C(=O)c2cnn(-c3ccc(C(F)(F)F)cn3)c2C)cc1 (stereo not drawn) [SN00774591] | 35.2 | –
8 | Cc1c(C(=O)N2CCCC2Cn2cccn2)cnn1-c1ccccc1 (stereo not drawn) [SN00774604] | 16.2 | –
9 | O=C(NCCN1CCCCCC1=O)C1CCCN1C(=O)C1CCCC1 (stereo not drawn) [SN00774624] | 0.0 | –
10 | O=C(c1cnccn1)N1CCN(C(=O)C2CCCC2)CC1 [SN00774707] | 8.7 | –
11 | Cc1cnc(C(=O)N2CCN(C(=O)OC(C)(C)C)C(C)C2)cn1 (stereo not drawn) [SN00774718] | 0.0 | –
12 | O=C(Cc1ccccc1[N+](=O)[O-])N1CCN(C(=O)c2ccc3c(c2)OCO3)CC1 [SN00774731] | 9.4 | –
13 | COc1ccc(S(=O)(=O)N2CCN(C(=O)c3cc(C)n(C(C)C)c3C)CC2)cc1OC [SN00774751] | 14.4 | –
14 | O=C(c1cc(=O)[nH]c2ccccc12)N1CCN(Cc2ccc3c(c2)OCO3)CC1 [SN00774920] | 0.0 | –
15 | O=C(C1CCCN1S(=O)(=O)c1ccc(Br)cc1)N1CCCCC1 (stereo not drawn) [SN00774966] | 3.8 | –
16 | O=C(C1CCCN1C(=O)C1CCCCC1)N1CCCC(c2nc(-c3ccc(Cl)cc3)no2)C1 (stereo not drawn) [SN00774977] | 0.0 | –
17 | O=C(C1CCCN(S(=O)(=O)c2ccccc2)C1)N1CCCC(C(F)(F)F)C1 (stereo not drawn) [SN00774985] | 7.6 | –
18 | Cc1cc(C(=O)N2CCC(Oc3ccccc3)CC2)[nH]n1 [SN00775052] | 4.5 | –
19 | O=C(c1cnn(-c2ccccc2)c1C1CC1)N1CCc2ccccc21 [SN00775113] | 0.5 | –
20 | CSc1ccc(N2CC(C(=O)N3c4ccccc4CC3C)CC2=O)cc1 (stereo not drawn) [SN00775126] | 0.0 | –
21 | COC(=O)c1cccc2c1CCCN2C(=O)C1CC(=O)N(CCc2ccccc2)C1 (stereo not drawn) [SN00775178] | 0.0 | –
22 | COc1ccccc1N1CCN(C(=O)c2ccc3[nH]c(C)c(C)c3c2)CC1 [SN00775216] | 36.6 | –
23 | Cc1cc(C)n2nc(C(=O)N3CCC(CC(N)=O)CC3)nc2n1 [SN00775259] | 0.0 | –
24 | Cc1cc(C)n2nc(C(=O)N3CCCC(n4cncn4)C3)nc2n1 (stereo not drawn) [SN00775270] | 8.1 | –
25 | CCOC(=O)c1sc2nc(CN3CCCCC3)nc(NCCC(=O)OC)c2c1C [SN00775388] | 0.0 | –

Row | SMILES | % Inhibition n=1 48h [%] | also measured
26 | Cc1sc2nc(CN3CCC(C)CC3)nc(N(C)Cc3nc4ccsc4c(=O)[nH]3)c2c1C [SN00775403] | 11.1 | –
27 | O=c1c(Br)c(N2CCCCC2)cnn1-c1ccccc1 [SN00775416] | 8.1 | –
28 | COc1ccc(CN2CCCN(c3ncnc4ccccc34)CC2)cc1 [SN00775453] | 0.0 | –
29 | O=c1[nH]c(CN2CCCCC2)nc2scc(-c3cccs3)c12 [SN00775605] | 0.0 | –
30 | Cc1cccc(NC(=O)C2CCCN(c3c([N+](=O)[O-])c(C)nn3C)C2)n1 (stereo not drawn) [SN00775639] | 0.0 | –
31 | Cc1nn(C)c(N2CCC(C(=O)NC(C)C(C)C)CC2)c1[N+](=O)[O-] (stereo not drawn) [SN00775640] | 7.0 | –
32 | Cc1noc(C)c1S(=O)(=O)N1CCC(C(=O)NCC(c2ccccc2)N(C)C)CC1 (stereo not drawn) [SN00775659] | 0.0 | –
33 | Cc1cnc(CN2CCOC(CNc3cccnn3)C2)o1 (stereo not drawn) [SN00775722] | 13.5 | –
34 | CCOc1cc(C(=O)Nc2ccc(C3=CSC4=NCCCN34)cc2)ccc1OC(F)F [SN00775741] | 4.5 | –
35 | COCCc1ccc(Oc2nnnn2-c2ccccc2)cc1 [SN00775761] | 24.6 | –
36 | c1ccc(-n2nnnc2Oc2ccc(-c3nc4ccccc4s3)cc2)cc1 [SN00775768] | 19.1 | –
37 | CCCCn1c(=O)[nH]c(=O)c2c1nc(-c1ccc(-c3cccc([N+](=O)[O-])c3)o1)n2CC [SN00775781] | 37.2 | –
38 | CCCCn1c(=O)[nH]c(=O)c2c1nc(-c1ccc(-c3ccc([N+](=O)[O-])cc3Cl)o1)n2C [SN00775787] | 19.8 | –
39 | CS(=O)(=O)N1CCCC1C(=O)OCc1cc(=O)n2c3c(sc2n1)CCCC3 (stereo not drawn) [SN00775816] | 10.4 | –
40 | O=C(Cn1nnc(-c2cccs2)n1)NCc1ccc(Cl)cc1 [SN00775829] | 45.7 | –
41 | O=C(Cn1nnc(-c2cccs2)n1)c1ccc(Cl)s1 [SN00775834] | 2.4 | –
42 | O=C(Nc1ccnn1Cc1ccccn1)c1cccnc1Oc1ccccc1 [SN00775947] | 2.6 | –
43 | O=C(CCc1ccc(F)cc1)Nc1ccn(Cc2ccccn2)n1 [SN00775953] | 0.0 | –
44 | O=S1(=O)CCC(Nc2nc(-c3ccccn3)nc3scc(-c4ccccc4)c23)C1 (stereo not drawn) [SN00776030] | 24.9 | –
45 | NC1=Nc2nc3ccccc3n2C(c2ccc(-c3ccc(F)cc3)o2)N1 (stereo not drawn) [SN00776094] | 31.0 | Average % Inhibition 24h: 0.0%; % Inhibition n=1 24h: 0.0%; % Inhibition n=2 24h: 0.0%; Average % Inhibition 48h: 18.4%; % Inhibition n=2 48h: 5.8%
46 | CCn1c(C2NC(N)=Nc3nc4ccccc4n32)nc2ccccc21 (stereo not drawn) [SN00776112] | 5.4 | –
47 | Cc1nc2sccn2c1-c1nc(-c2ccccc2)c(C(=O)c2ccc3c(c2)NC(=O)CO3)s1 [SN00776123] | 7.0 | –
48 | Cc1nc2sccn2c1-c1nc(-c2cccc3ccccc23)cs1 [SN00776128] | 37.4 | –
49 | CS(=O)(=O)c1ccc(-c2csc(-n3nccc3C(F)(F)F)n2)cc1 [SN00776135] | 7.7 | –
50 | COc1ccc(-c2csc(-n3nccc3C(F)(F)F)n2)cc1OC [SN00776140] | 27.9 | –

Row | SMILES | % Inhibition n=1 48h [%] | also measured
51 | Cc1cc(NC(=O)c2ccc([N+](=O)[O-])cc2)n(-c2nc3ccccc3[nH]2)n1 [SN00776157] | 6.0 | –
52 | NC1=C(c2nc3ccccc3s2)CC(=O)N1C1CC1 [SN00776353] | 0.0 | –
53 | Cc1sc(-n2cccc2)c(C(=O)NC2CCCCCC2)c1C [SN00776382] | 0.0 | –
54 | CCc1nnc(NC(=O)c2ccsc2-n2c(C)ccc2C)s1 [SN00776389] | 11.7 | –
55 | c1ccc(-c2cn3nc(-c4ccccc4)n4c3c2CCCC4)cc1 [SN00776412] | 0.0 | –
56 | FC(F)Oc1ccc(-c2csc(Cc3nnc4n3CCCCC4)n2)cc1 [SN00776417] | 34.2 | Average % Inhibition 24h: 12.3%; % Inhibition n=1 24h: 22.0%; % Inhibition n=2 24h: 2.6%; Average % Inhibition 48h: 19.6%; % Inhibition n=2 48h: 5.0%
57 | CCN(c1ccc(-c2csc(Cc3nnc4n3CCCCC4)n2)cc1)S(C)(=O)=O [SN00776436] | 17.3 | –
58 | O=C(C1=C(O)C(=O)N(CCN2CCOCC2)C1c1ccncc1)c1ccccc1 (stereo not drawn) [SN00776455] | 0.7 | –
59 | CC1CN(c2nc3c(c(=O)[nH]c(=O)n3C)n2CC(=O)O)CC(C)O1 (stereo not drawn) [SN00776554] | 4.6 | –
60 | O=C(Nc1ccc2c(c1)OCO2)C1CCN(Cc2nnnn2-c2ccccc2)CC1 [SN00776590] | 4.9 | –
61 | CCN(CC)CCN1C(=O)C(O)=C(C(=O)c2cccs2)C1c1ccc(C)o1 (stereo not drawn) [SN00776616] | 15.0 | –
62 | CN(C)CCCN1C(=O)C(O)=C(C(=O)c2cc(Cl)ccc2O)C1c1ccco1 (stereo not drawn) [SN00776642] | 14.6 | –
63 | CCOC(=O)c1sc(N2C(=O)C(O)=C(C(=O)c3ccco3)C2c2ccc(OC)cc2)nc1C (stereo not drawn) [SN00776656] | 6.9 | –
64 | Cc1c(C(=O)Nc2cc(-c3ccncc3)n[nH]2)cccc1[N+](=O)[O-] [SN00776775] | 37.2 | Average % Inhibition 24h: 6.4%; % Inhibition n=1 24h: 12.8%; % Inhibition n=2 24h: 0.0%; Average % Inhibition 48h: 21.4%; % Inhibition n=2 48h: 5.6%
65 | O=C(Nc1nnc(-c2ccccn2)[nH]1)C1CC(=O)N(CC(F)(F)F)C1 (stereo not drawn) [SN00776806] | 9.5 | –
66 | Cn1c(=O)[nH]c(=O)c2c1nc(N1CCNCC1)n2Cc1ccc(Br)cc1 [SN00776836] | 0.0 | –
67 | O=C(CCC(=O)N1CCCC1c1nc2ccccc2[nH]1)c1ccccc1 (stereo not drawn) [SN00776900] | 28.7 | –
68 | CCCNC(=O)CCNC(=O)N1CCCC1c1nc2cc(C)ccc2[nH]1 (stereo not drawn) [SN00776915] | 37.1 | –
69 | Cc1cccc(C)c1NC(=O)c1cc(-c2ccccc2)nc2c1cnn2Cc1cccnc1 [SN00776937] | 17.5 | –
70 | CC(=O)Nc1cc(NC(=O)c2cc(-c3ccccc3)nc3c2cnn3Cc2cccnc2)ccc1F [SN00776945] | 50.1 | Average % Inhibition 24h: 0.0%; % Inhibition n=1 24h: 0.0%; % Inhibition n=2 24h: 0.0%; Average % Inhibition 48h: 25.1%; % Inhibition n=2 48h: 0.0%
71 | Cc1ccc(NC(=O)Cc2nc(-c3ccc4c(c3)CC(=O)N4C)cs2)cc1 [SN00777029] | 10.0 | –
72 | CN1C(=O)Cc2cc(-c3csc(N=C(N)N)n3)ccc21 [SN00777034] | 0.0 | –
73 | CS(=O)(=O)N1CCCc2cc(-c3csc(N)n3)ccc21 [SN00777047] | 7.2 | –
